Counter-ions that a name gives are not always drawn.
Assays:
Type in all cases: physicochemical
[1] = Dissolution, 900 ml 0.1N HCl, USP Apparatus 1, 75 rpm, 37° C.; details: Example 29 homogenous CR tablet (batch no. 08070T)
Protocol: (§1) The dissolution profile of the above pharmaceutical composition was determined under the dissolution conditions described below in Tables 1A, 1B, and 1C.

[2] = Dissolution, 900 ml pH 6.8 phosphate buffer, USP Apparatus 1, 75 rpm, 37° C.; details: Example 29 homogenous CR tablet (batch no. 08070T)
Protocol: as §1

[3] = Dissolution, 900 ml pH 7.5 phosphate buffer, Apparatus 1, 75 rpm, 37 C.
Protocol: FIG. 27 is a graph depicting the dissolution profile in 900 ml of pH 7.5 phosphate buffer using USP Apparatus 1 at 75 rpm at 37° C. of the composition described in Example 27.
FIG. 28 is a graph depicting the dissolution profile in 900 ml of pH 7.5 phosphate buffer using USP Apparatus 1 at 75 rpm at 37° C. of the composition described in Example 28.
The dissolution profile of the above pharmaceutical composition was determined under the dissolution conditions described below in Table 27.
The dissolution profile of the above pharmaceutical composition was determined under the dissolution conditions described below in Table 28. The result of the dissolution testing is presented as a % of the total tramadol HCl and meloxicam in the controlled release tablet (batch 1258-175) and also depicted in FIG. 28.

[4] = pKa (physicochemistry of the actives)
From the text: The synchronous release of the combination of actives comprising the once-daily pharmaceutical compositions of the present invention is particularly surprising when one considers that the differing physicochemical characteristics of the active ingredients and the likely differences in the permeability coefficients for the combination of active drugs would result in a differing rate and extent of drug release for each of the drugs chosen to be part of the combination. Accordingly, it was expected that it would be difficult to optimize the release kinetics of the combination of drugs contemplated without one drug potentially negatively influencing the release kinetics of the other drug of the combination.

## COc1cccc(C2(O)CCCCC2CN(C)C)c1 (stereo not shown) [Tramadol HCl]
[1]; 0.5 hr
  % Released: 18%
[1]; 1 hr
  % Released: 28%
[1]; 2 hr
  % Released: 42%
[1]; 3 hr
  % Released: 53%
[1]; 4 hr
  % Released: 62%
[1]; 5 hr
  % Released: 70%
[1]; 6 hr
  % Released: 76%
[1]; 8 hr
  % Released: 86%
[1]; 10 hr
  % Released: 93%
[1]; 12 hr
  % Released: 97%
[2]; 0.5 hr
  % Released: 19%
[2]; 1 hr
  % Released: 29%
[2]; 2 hr
  % Released: 44%
[2]; 3 hr
  % Released: 55%
[2]; 4 hr
  % Released: 65%
[2]; 5 hr
  % Released: 72%
[2]; 6 hr
  % Released: 79%
[2]; 8 hr
  % Released: 90%
[2]; 10 hr
  % Released: 98%
[3]; 2 hrs, Example 27 controlled release tablet (batch 1258-171), ethylcellulose coating
  % Release: 51%
[3]; 2 hrs, Example 28 controlled release tablet (batch 1258-175), Kollicoat SR 30D coating
  % Release: 0%
[3]; 4 hrs, Example 27 controlled release tablet (batch 1258-171), ethylcellulose coating
  % Release: 70%
[3]; 4 hrs, Example 28 controlled release tablet (batch 1258-175), Kollicoat SR 30D coating
  % Release: 7%
[3]; 8 hrs, Example 27 controlled release tablet (batch 1258-171), ethylcellulose coating
  % Release: 96%
[3]; 8 hrs, Example 28 controlled release tablet (batch 1258-175), Kollicoat SR 30D coating
  % Release: 61%
[3]; 10 hrs, Example 27 controlled release tablet (batch 1258-171), ethylcellulose coating
  % Release: 100%
[3]; 10 hrs, Example 28 controlled release tablet (batch 1258-175), Kollicoat SR 30D coating
  % Release: 74%
[3]; 16 hrs, Example 27 controlled release tablet (batch 1258-171), ethylcellulose coating
  % Release: 100%
[3]; 16 hrs, Example 28 controlled release tablet (batch 1258-175), Kollicoat SR 30D coating
  % Release: 84%

## OCCOCCN1CCN(C2=Nc3ccccc3Sc3ccccc32)CC1 [Quetiapine Fumarate, quetiapine fumarate]
[4]
  pKa: 3.3

## CC(NC(C)(C)C)C(=O)c1cccc(Cl)c1 (stereo not shown) [Bupropion HBr, bupropion hydrobromide]
[4]
  pKa: 7.8

Reference: US20110052684A1, “PHARMACEUTICAL COMPOSITION” (priority 2008, published 2011)
